Reference: patent US11497776B2, “Combination therapy for a stable and long term engraftment” (Yeda Research and Development Co. Ltd., priority 2011, dated 2022)
Like-named read-outs stand apart in the source and are kept apart here.

Tests used:
[1] = tested on: allogeneic recipients (C3H/Hen) transplanted with Balb/c-Nude BM cells
Description: (§1) Low (5×10^6) and high dose (25×10^6) Balb/c-Nude BM cells (providing a source of BM depleted of T cells) were transplanted into allogeneic recipients (C3H/Hen) on day 0 following in-vivo T cell debulking (TCD) with anti-CD4 (clone GK1.5) and anti-CD8 (clone 53.6.72) antibodies (300 μg each; Bio X Cell, NH, USA) delivered on day −6, and exposure to 2.0 Gy total body irradiation (TBI) on day −1. High dose Cyclophosphamide (CY, 100 mg/kg, Baxter Oncology, Germany) was administered on days +3 and +4 post transplant and donor type chimerism was evaluated 35 and 95 days post transplant using fluorescein anti-host and donor H-2 antibodies (e.g. FlTC labeled anti-H-2D^d antibody specific for donor type cells and PE labeled anti-H-2K^k antibody specific for host type cells).
Recipient mice (C3H/Hen) were treated with a conditioning protocol prior to transplantation of a T cell depleted bone marrow transplant. Specifically, mice were in-vivo treated with T cell debulking (TCD) using anti-CD4 and anti-CD8 antibodies delivered on day −6 and by exposure to 2.0 Gy total body irradiation (TBI) on day −1. Next, low (5×10^6) or high dose (25×10^6) Balb/c-Nude BM cells (providing a source of BM depleted of T cells, as Nude mice have miniscule numbers of mature T cells) were transplanted into allogeneic recipients (C3H/Hen) on day 0. High dose cyclophosphamide (CY, 100 mg/kg) was administered on days +3 and +4 post transplant. Evaluation of bone marrow cell engraftment was evaluated by donor type chimerism at 35 and 95 days post transplant.
as §1, with “High” for “Low (5×10^6) and high”, “different doses of irradiation ranging from 1 to 3.5” for “2.0”, “TBI” for “total body irradiation (TBI)”, “30” for “35 and 95”
High dose Cyclophosphamide (CY) was administered on days +3 and +4 post transplant and donor type chimerism was evaluated at 30 days post transplant.
as §1, with “High dose” for “Low (5×10^6) and high dose”, “−1. Different doses of” for “−1. High dose”, “mg/kg, 125 mg/kg or 150 mg/kg,” for “mg/kg,”, “Germany) were” for “Germany) was”, “evaluated 30” for “evaluated 35 and 95”

[2] = tested on: C3H/Hen recipients of T cell depleted BM and high dose CY
Description: Donor (Balb/c) and 3rd party (C57BL/6) skin grafts were transplanted to the mixed chimeric recipients as described above [i.e. to those mice which were previously transplanted with mega dose (25×10^6) T cell depleted BM and were treated with high dose CY] and to the recipient mice that were inoculated with a regular (5×10^6) T cell depleted BM cell dose and were treated with high dose CY.
Tolerance induction was measured by transplantation of donor (Balb/c) and 3rd party (C57BL/6) skin grafts to the mixed chimeric recipients that were transplanted with mega dose (25×10^6) T cell depleted BM and were treated with high dose CY (as described above), in comparison to the recipients that were inoculated with a regular (5×10^6) T cell depleted BM cell dose (as described above).

[3] = 1.0 Gy TBI, 25×10^6 BM, CY 100 mg/kg days +3 and +4, 30 days post transplant
[4] = 2 Gy TBI, 25×10^6 BM, CY 100 mg/kg days +3 and +4, 30 days post transplant
[5] = 2.5, 3 or 3.5 Gy TBI, 25×10^6 BM, CY 100 mg/kg days +3 and +4, 30 days post transplant

Compound: O.O=P1(N(CCCl)CCCl)NCCCO1 (stereo not drawn) [CY, 2-[bis(2-chloroethyl)amino]tetrahydro-2H-1,3,2-oxazaphosphorine 2-oxide monohydrate]
- effect of increasing CY dose on chimerism ([1]; 125 mg/kg or 150 mg/kg versus 100 mg/kg, 25×10^6 BM, 2 Gy TBI, 30 days post transplant): did not provide a significant enhancement of chimerism
- donor type chimerism range [1, 3]: 14.5-58%
- percentage of chimeric mice [1, 3]: 83%
- donor type chimerism range [1, 4]: 56-85%
- percentage of mice exhibiting donor type chimerism [1, 4]: 87%
- chimeric recipient mice [1, 5]: 6/6
- donor type chimerism range [1, 5]: 58-83%
- mixed chimerism at long term follow-up ([1]; 5×10^6 T cell depleted BM + CY, 180 and 225 days post transplant): did not exhibit mixed chimerism
- effect of CD8+ cell depletion of the BM preparation on level of chimerism ([1]; 25×10^6 CD8 depleted vs non-depleted Balb/c-Nude BM, CY 100 mg/kg days +3 and +4, 2.0 Gy TBI, 30 days post transplant): did not have any adverse impact
- chimerism at long term follow-up ([1]; 25×10^6 T cell depleted BM + high dose CY, 180 and 225 days post transplant): stable and durable
- mice in which durable mix chimerism was achieved ([1]; 25×10^6 T cell depleted BM, CY 100 mg/kg days +3 and +4, TCD day −6, 2.0 Gy TBI day −1, day 35 and day 95): 4 out of 7
- average donor type chimerism ([1]; CY 100 mg/kg days +3 and +4, 25×10^6 BM, 2 Gy TBI, 30 days post transplant): 57.5±25.8
- average donor type chimerism ([1]; CY 125 mg/kg days +3 and +4, 25×10^6 BM, 2 Gy TBI, 30 days post transplant): 66.5±20.6
- average donor type chimerism ([1]; CY 150 mg/kg days +3 and +4, 25×10^6 BM, 2 Gy TBI, 30 days post transplant): 67.4±27.4
- mice expressing donor type chimerism ([1]; control mice: TCD, 2 Gy TBI and optionally CY, no BM, day 35 and day 95): none
- mice expressing donor type chimerism ([1]; regular dose 5×10^6 T cell depleted BM, in the presence or absence of cyclophosphamide, TCD, 2 Gy TBI, day 35 and day 95): none
- skin graft outcome ([2]; 5×10^6 T cell depleted BM cells and CY): rejected both the donor and 3rd party skin grafts
- chimeric mice that accepted the donor graft and rejected the 3rd party skin grafts ([2]; 25×10^6 T cell depleted BM + high dose CY days +3 and +4): three out of 4
